From PubChem BioAssay AID1963860 (Molecular Pharmacology Branch, DTP, NCI, 2024)

Test system: CN0375-F725-PDC KRAS spheroid viability
Experiment: Anticancer human tumor CN0375-F725-PDC patient-derived colon carcinoma cell line growth inhibition [KRAS2]
Details: spheroids with HUVEC and MSC; for IC50: curve of first compound; for viability, T/C: stronger effect = lower value
How it was run: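 Combination screen of spheroid viability in tumor-cell co-cultures with endothelial (HUVEC) and mesenchymal stem cell stroma. Each agent was tested in half-log dilutions, topping at clinical Cmax or at 10 microM without a known Cmax.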

[1] = second compound 0.1 µM, first compound 0.0316 µM
[2] = second compound 0.1 µM, first compound 0.1 µM
[3] = second compound 0.1 µM, first compound 0.316 µM
[4] = second compound 0.1 µM, first compound 1 µM
[5] = second compound 0.1 µM, first compound 3.16 µM
[6] = second compound 0.1 µM, first compound 10 µM
[7] = second compound 0.316 µM, first compound 0.0316 µM
[8] = second compound 0.316 µM, first compound 0.1 µM
[9] = second compound 0.316 µM, first compound 0.316 µM
[10] = second compound 0.316 µM, first compound 1 µM
[11] = second compound 0.316 µM, first compound 3.16 µM
[12] = second compound 0.316 µM, first compound 10 µM
[13] = second compound 1 µM, first compound 0.0316 µM
[14] = second compound 1 µM, first compound 0.1 µM
[15] = second compound 1 µM, first compound 0.316 µM
[16] = second compound 1 µM, first compound 1 µM
[17] = second compound 1 µM, first compound 3.16 µM
[18] = second compound 1 µM, first compound 10 µM
[19] = second compound 3.16 µM, first compound 0.0316 µM
[20] = second compound 3.16 µM, first compound 0.1 µM
[21] = second compound 3.16 µM, first compound 0.316 µM
[22] = second compound 3.16 µM, first compound 1 µM
[23] = second compound 3.16 µM, first compound 3.16 µM
[24] = second compound 3.16 µM, first compound 10 µM
[25] = second compound 10 µM, first compound 0.0316 µM
[26] = second compound 10 µM, first compound 0.1 µM
[27] = second compound 0.1 µM, first compound 0.000316 µM
[28] = second compound 0.1 µM, first compound 0.001 µM
[29] = second compound 0.1 µM, first compound 0.00316 µM
[30] = second compound 0.1 µM, first compound 0.01 µM
[31] = second compound 0.316 µM, first compound 0.000316 µM
[32] = second compound 0.316 µM, first compound 0.001 µM
[33] = second compound 0.316 µM, first compound 0.00316 µM
[34] = second compound 0.316 µM, first compound 0.01 µM
[35] = second compound 1 µM, first compound 0.000316 µM
[36] = second compound 1 µM, first compound 0.001 µM
[37] = second compound 1 µM, first compound 0.00316 µM
[38] = second compound 1 µM, first compound 0.01 µM
[39] = second compound 3.16 µM, first compound 0.000316 µM
[40] = second compound 3.16 µM, first compound 0.001 µM
[41] = second compound 3.16 µM, first compound 0.00316 µM
[42] = second compound 3.16 µM, first compound 0.01 µM
[43] = second compound 10 µM, first compound 0.000316 µM
[44] = second compound 10 µM, first compound 0.001 µM
[45] = second compound 10 µM, first compound 0.00316 µM
[46] = second compound 10 µM, first compound 0.01 µM
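Further: spheroids exposed to agents for 7 days.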

CC1OCC2(CCN(c3cnc(Sc4ccnc(N)c4Cl)c(N)n3)CC2)C1N (stereo not given) + COc1cc2nc(C)nc(NC(C)c3cc(N)cc(C(F)(F)F)c3)c2cc1OC1CCOC1
IC50 (second compound 0.1 µM): > 10000 nM
IC50 (second compound 0.316 µM): > 10000 nM
IC50 (second compound 1 µM): > 10000 nM
IC50 (second compound 3.16 µM): 4640 nM
IC50 (second compound 10 µM): < 31.6 nM
viability, T/C [1]: 95.5%
viability, T/C [2]: 83.2%
viability, T/C [3]: 80.6%
viability, T/C [4]: 81.2%
viability, T/C [5]: 76%
viability, T/C [6]: 70.7%
viability, T/C [7]: 90.5%
viability, T/C [8]: 91.7%
viability, T/C [9]: 73.3%
viability, T/C [10]: 77.8%
viability, T/C [11]: 71%
viability, T/C [12]: 60.6%
viability, T/C [13]: 91.3%
viability, T/C [14]: 87.2%
viability, T/C [15]: 81.3%
viability, T/C [16]: 73.9%
viability, T/C [17]: 68.7%
viability, T/C [18]: 60.4%
viability, T/C [19]: 80.9%
viability, T/C [20]: 73.8%
viability, T/C [21]: 69%
viability, T/C [22]: 57.2%
viability, T/C [23]: 61.3%
viability, T/C [24]: 40.1%
viability, T/C [25]: 13.6%
viability, T/C [26]: 12.1%
viability, T/C (second compound 10 µM, first compound 0.316 µM): 12.8%
viability, T/C (second compound 10 µM, first compound 1 µM): 8.09%
viability, T/C (second compound 10 µM, first compound 3.16 µM): 8.5%
viability, T/C (second compound 10 µM, first compound 10 µM): 5.15%

COc1cc(Nc2ncc3c(n2)-c2ccc(Cl)cc2C(c2c(F)cccc2OC)=NC3)ccc1C(=O)O + C=CC(=O)N1CCN(c2nc(OCC3CCCN3C)nc3c2CCN(c2cccc4cccc(C)c24)C3)CC1CC#N
IC50 (second compound 0.0316 µM): > 10000 nM
IC50 (second compound 0.1 µM): > 10000 nM
IC50 (second compound 0.316 µM): > 10000 nM
IC50 (second compound 1 µM): > 10000 nM
IC50 (second compound 3.16 µM): < 31.6 nM
viability, T/C (second compound 0.0316 µM, first compound 0.0316 µM): 96.6%
viability, T/C (second compound 0.0316 µM, first compound 0.1 µM): 108%
viability, T/C (second compound 0.0316 µM, first compound 0.316 µM): 91.8%
viability, T/C (second compound 0.0316 µM, first compound 1 µM): 95%
viability, T/C (second compound 0.0316 µM, first compound 3.16 µM): 93.9%
viability, T/C (second compound 0.0316 µM, first compound 10 µM): 74.9%
viability, T/C [1]: 109%
viability, T/C [2]: 105%
viability, T/C [3]: 91.3%
viability, T/C [4]: 92.5%
viability, T/C [5]: 95.9%
viability, T/C [6]: 79.3%
viability, T/C [7]: 103%
viability, T/C [8]: 101%
viability, T/C [9]: 94.8%
viability, T/C [10]: 91.8%
viability, T/C [11]: 88%
viability, T/C [12]: 75.7%
viability, T/C [13]: 88.3%
viability, T/C [14]: 90.8%
viability, T/C [15]: 82.9%
viability, T/C [16]: 83.2%
viability, T/C [17]: 83.9%
viability, T/C [18]: 73.8%
viability, T/C [19]: 16.5%
viability, T/C [20]: 23%
viability, T/C [21]: 14%
viability, T/C [22]: 44.8%
viability, T/C [23]: 42.3%
viability, T/C [24]: 22.3%

CC(=O)Nc1cccc(-n2c(=O)n(C3CC3)c(=O)c3c(Nc4ccc(I)cc4F)n(C)c(=O)c(C)c32)c1 + CC1OCC2(CCN(c3cnc(Sc4ccnc(N)c4Cl)c(N)n3)CC2)C1N
IC50 (second compound 0.1 µM): 4.59 nM
IC50 (second compound 0.316 µM): 2.09 nM
IC50 (second compound 1 µM): 1.61 nM
IC50 (second compound 3.16 µM): 0.826 nM
IC50 (second compound 10 µM): 0.257 nM
viability, T/C (second compound 0.1 µM, first compound 0.0001 µM): 90.5%
viability, T/C [27]: 79.2%
viability, T/C [28]: 64%
viability, T/C [29]: 54.7%
viability, T/C [30]: 42.8%
viability, T/C [1]: 30.5%
viability, T/C (second compound 0.316 µM, first compound 0.0001 µM): 84.5%
viability, T/C [31]: 75.8%
viability, T/C [32]: 57.5%
viability, T/C [33]: 44.9%
viability, T/C [34]: 39.2%
viability, T/C [7]: 32.5%
viability, T/C (second compound 1 µM, first compound 0.0001 µM): 78.4%
viability, T/C [35]: 66.8%
viability, T/C [36]: 55.1%
viability, T/C [37]: 42.5%
viability, T/C [38]: 35%
viability, T/C [13]: 27.4%
viability, T/C (second compound 3.16 µM, first compound 0.0001 µM): 66.5%
viability, T/C [39]: 65.8%
viability, T/C [40]: 45.2%
viability, T/C [41]: 36.2%
viability, T/C [42]: 31.4%
viability, T/C [19]: 27.2%
viability, T/C (second compound 10 µM, first compound 0.0001 µM): 63.1%
viability, T/C [43]: 46.4%
viability, T/C [44]: 37.6%
viability, T/C [45]: 30%
viability, T/C [46]: 23.5%
viability, T/C [25]: 24.6%

CC(C)n1nc(-c2ccc3oc(N)nc3c2)c2c(N)ncnc21 + CC1OCC2(CCN(c3cnc(Sc4ccnc(N)c4Cl)c(N)n3)CC2)C1N
IC50 (second compound 0.1 µM): 58.1 nM
IC50 (second compound 0.316 µM): 42.2 nM
IC50 (second compound 1 µM): 33.1 nM
IC50 (second compound 3.16 µM): 26.3 nM
IC50 (second compound 10 µM): 7.76 nM
viability, T/C [27]: 91.6%
viability, T/C [28]: 89.6%
viability, T/C [29]: 73.9%
viability, T/C [30]: 68.6%
viability, T/C [1]: 54.2%
viability, T/C [2]: 45.7%
viability, T/C [31]: 84.5%
viability, T/C [32]: 84.9%
viability, T/C [33]: 73.1%
viability, T/C [34]: 60.7%
viability, T/C [7]: 54.6%
viability, T/C [8]: 43.2%
viability, T/C [35]: 82.5%
viability, T/C [36]: 81.7%
viability, T/C [37]: 68.6%
viability, T/C [38]: 61.5%
viability, T/C [13]: 51%
viability, T/C [14]: 40.5%
viability, T/C [39]: 74.6%
viability, T/C [40]: 74.3%
viability, T/C [41]: 67.5%
viability, T/C [42]: 57.3%
viability, T/C [19]: 46.9%
viability, T/C [20]: 37.9%
viability, T/C [43]: 63.8%
viability, T/C [44]: 65%
viability, T/C [45]: 56.4%
viability, T/C [46]: 47.5%
viability, T/C [25]: 39.9%
viability, T/C [26]: 33.8%
